These results are taken from patent publication US20120323164A1, “PHOTODYNAMIC THERAPY WITH PHTHALOCYANINES AND RADICAL SOURCES” (Case Western Reserve University, priority 2011, published 2012).

Data set [1] can be described thus: Photodecomposition of phthalocyanines in toluene under white light, no added radical source. The note with it: for photostability (in words): white light, toluene.
Experimental: The distance between the cuvette face and the lamp filament was 30 cm. Determination of the beam intensity at the cuvette face was made with a powermeter (Powermax, pm10, Coherent, Santa Clara, Calif.). The beam intensity was checked before each measurement.
Solutions for the photodecomposition experiments were prepared as follows. […] This assumption was justified on the basis that all of the silicon phthalocyanines studied contained simple, unsubstituted phthalocyanine rings. The extinction coefficients of the aluminum phthalocyanines were assumed to be 2.3×10^5, the extinction coefficient of AlPcOSi(CH3)2(CH2)3N(CH3)2, Pc 1.
The absorbance of the Q band of the solution, A, was determined with a spectrophotometer (Lambda 25, Perkin Elmer, Shelton, Conn.; fused silica cuvettes, 1.00 cm, 3.5 mL, Fisher Scientific). From A, ε, the cuvette path length, b, and Beer's law, the concentration of the solution, c, was determined. The solution was then diluted with toluene to a concentration of 9.2 μM. To verify that this was the concentration of the solution, its absorbance was measured again.
In a typical determination, the solution (3.00 mL) was placed in a cuvette (1.00 cm, 3.5 mL, Fisher Scientific, Pittsburgh, Pa.) and its absorbance was measured with the spectrometer (Lambda 25) before irradiation and at 2, 4, 6 and 8 h.
where A0 is the absorbance of the solution at time 0, and At is the absorbance at time t.
Data set [2] is described as follows: Photodecomposition of Al and Si phthalocyanines in toluene in the presence of squalene under white light. The note with it: toluene ~9 μM, squalene 1:1000 mole ratio, white light 1.2 kJ/s/m^2, air. It is filed as physicochemical. The protocol:
The beam intensity was checked before each measurement.
Solutions for the photodecomposition experiments were prepared as follows.

The mark [3] stands for this setting: time 0 h, toluene ~9 μM, no added alkene, white light 1.2 kJ/s/m^2.
The mark [4] stands for this setting: time 2 h, radiation 86 kJ/mol × 10^−6, toluene ~9 μM, no added alkene, white light 1.2 kJ/s/m^2.
Setting [5] is: time 4 h, radiation 172 kJ/mol × 10^−6, toluene ~9 μM, no added alkene, white light 1.2 kJ/s/m^2.
The mark [6] stands for this setting: time 6 h, radiation 258 kJ/mol × 10^−6, toluene ~9 μM, no added alkene, white light 1.2 kJ/s/m^2.
Where [7] appears, read: time 8 h, radiation 344 kJ/mol × 10^−6, toluene ~9 μM, no added alkene, white light 1.2 kJ/s/m^2.
Where [8] appears, read: time 2 h, radiation 86 kJ/mol × 10^−6.
Setting [9] is: time 4 h, radiation 172 kJ/mol × 10^−6.
Where [10] appears, read: time 6 h, radiation 258 kJ/mol × 10^−6.
The mark [11] stands for this setting: time 8 h, radiation 344 kJ/mol × 10^−6.

Values joined by “and” are separate entries in the source; they are usually repeats but may differ in a detail not shown here. Equal values may be shown once.

On to `CN(C)CCC[Si](C)(C)O[Si]1(O[Si](C)(C)CCCN(C)C)n2c3c4ccccc4c2N=C2N=C(N=c4c5ccccc5c(n41)=NC1=NC(=N3)c3ccccc31)c1ccccc12` [Pc 12, SiPc[OSi(CH3)2(CH2)3N(CH3)2]2], for which the “decomp (%)” value in data set [1] (setting [3]) was 0%; in data set [1] (setting [4]), 19% and 18%; in data set [1] (setting [5]) it was 20% and 19%; in data set [1] (setting [6]), 21%; in data set [1] (setting [7]) it was 21%.
In the case of `COCCC[Si](C)(C)O[Si]1(O[Si](C)(C)CCCOC)n2c3c4ccccc4c2N=C2N=C(N=c4c5ccccc5c(n41)=NC1=NC(=N3)c3ccccc31)c1ccccc12` [Pc 92, SiPc[OSi(CH3)2(CH2)3OCH3]2], the “decomp (%)” value in data set [1] (setting [3]) is 0%; in data set [1] (setting [4]), 1%; in data set [1] (setting [5]), 1%; in data set [1] (setting [6]), 1%; in data set [1] (setting [7]) it was 1%.
For the molecule `CSCCC[Si](C)(C)O[Si]1(O[Si](C)(C)CCCSC)n2c3c4ccccc4c2N=C2N=C(N=c4c5ccccc5c(n41)=NC1=NC(=N3)c3ccccc31)c1ccccc12` [Pc 97, SiPc[OSi(CH3)2(CH2)3SCH3]2], the “decomp (%)” value in data set [1] (setting [3]) is listed as 0%; in data set [1] (setting [4]), 41%; in data set [1] (setting [5]) it was 42%; in data set [1] (setting [6]), 43%; in data set [1] (setting [7]), 44%.
In the case of “SiPc[OCH2CH═C(CH3)(CH2)2CH═C(CH3)2]2 [Pc 302]”, the “stability in the dark” value in data set [1] (in the dark) was “stable in the dark”. The “decomp (%)” value is given as 0% in data set [1] (setting [3]); 19% in data set [1] (setting [4]); 60% in data set [1] (setting [5]); 74% in data set [1] (setting [6]); 81% in data set [1] (setting [7]).
On to SiPc[OC(O)(CH2)16CH3]2 [Pc 294], for which the “decomp (%)” value was determined as 0% in data set [1] (setting [3]); 1% in data set [1] (setting [4]); 1% in data set [1] (setting [5]); 1% in data set [1] (setting [6]); 2% in data set [1] (setting [7]).
For “SiPc[OC(O)(CH2)6(CH2CH═CH)3CH2CH3]z [Pc 297]”, the “decomp (%)” value in data set [1] was 0 3 5 6 9%.
For the molecule `CCCCCCCCCCCCCCCCCC(=O)O.CCCCCCCCCCCCCCCCCC(=O)O.CN(C)CCC[Si](C)(C)O[Si]1(O[Si](C)(C)CCCN(C)C)n2c3c4ccccc4c2N=C2N=C(N=c4c5ccccc5c(n41)=NC1=NC(=N3)c3ccccc31)c1ccccc12` [Pc 287, SiPc[OSi(CH3)2(CH2)3NH(CH3)2]2^2+[OC(O)(CH2)17CH3]2^−], the “decomp (%)” value came out at 0% in data set [1] (setting [3]); 19% in data set [1] (setting [4]); 20% in data set [1] (setting [5]); 21% in data set [1] (setting [6]); 21% in data set [1] (setting [7]).
With `C=CC[Si](C)(C)O[Si]1(O[Si](C)(C)CC=C)n2c3c4ccccc4c2N=C2N=C(N=c4c5ccccc5c(n41)=NC1=NC(=N3)c3ccccc31)c1ccccc12` [Pc 271, SiPc[OSi(CH3)2CH2CH═CH2]2], the “decomp (%)” value in data set [1] (setting [3]) amounted to 0%; in data set [1] (setting [4]), 6%; in data set [1] (setting [5]) it was 10%; in data set [1] (setting [6]) it was 14%; in data set [1] (setting [7]), 16%.
For the molecule `CN(C)CCCCCC[Si](C)(C)O[Si]1(O[Si](C)(C)CCCCCCN(C)C)n2c3c4ccccc4c2N=C2N=C(N=c4c5ccccc5c(n41)=NC1=NC(=N3)c3ccccc31)c1ccccc12` [Pc 85, SiPc[OSi(CH3)2(CH2)6N(CH3)2]2], the “decomp (%)” value in data set [1] (setting [3]) worked out at 0%; in data set [1] (setting [4]), 5%; in data set [1] (setting [5]), 5%; in data set [1] (setting [6]) it was 5%; in data set [1] (setting [7]) it was 5%.
For the molecule AlPcOSi(CH3)2(CH2)3N(CH3)2 [Pc 1], the “decomp (%)” value in data set [1] (setting [3]) amounted to 0%; in data set [1] (setting [4]), 27%; in data set [1] (setting [5]) it was 39%; in data set [1] (setting [6]), 46%; in data set [1] (setting [7]) it was 49%. Also, the “photostability (in words)” value in data set [1] (no added alkene) is given as “low photostability”.
Take `CCCCCC[Si](CCCCCC)(CCCCCC)O[Si]1(O)n2c3c4ccccc4c2N=C2N=C(N=c4c5ccccc5c(n41)=NC1=NC(=N3)c3ccccc31)c1ccccc12` (stereo not drawn) [Pc 252, SiPc(OSiHx3)(OH)]: the “decomp (%)” value in data set [2] (time 0 h) is reported as 0%; in data set [2] (setting [8]), 16%; in data set [2] (setting [9]), 26%; in data set [2] (setting [10]), 34%; in data set [2] (setting [11]), 42%.
The corresponding values for `CCCCCC[Si](CCCCCC)(CCCCCC)O[Si]1(O[Si](CCCCCC)(CCCCCC)CCCCCC)n2c3c4ccccc4c2N=C2N=C(N=c4c5ccccc5c(n41)=NC1=NC(=N3)c3ccccc31)c1ccccc12` [Pc 162, SiPc(OSiHx3)2] are 0%, 9%, 14%, 20% and 26%.
Consider `CCCCCCCC[Si](CCCCCCCC)(CCCCCCCC)O[Si]1(O[Si](CCCCCCCC)(CCCCCCCC)CCCCCCCC)n2c3c4ccccc4c2N=C2N=C(N=c4c5ccccc5c(n41)=NC1=NC(=N3)c3ccccc31)c1ccccc12` [Pc 308, SiPc(OSiOct3)2], for which the “decomp (%)” value in data set [2] (time 0 h) is listed as 0%; in data set [2] (setting [8]), 10%; in data set [2] (setting [9]) it was 15%; in data set [2] (setting [10]), 21%; in data set [2] (setting [11]), 26%.
The like results for `C[Si](C)(CCCI)O[Si]1(O)n2c3c4ccccc4c2N=C2N=C(N=c4c5ccccc5c(n41)=NC1=NC(=N3)c3ccccc31)c1ccccc12` (stereo not drawn) [Pc 58, SiPc[OSiMe2(CH2)3I](OH)] were, in that order, 0%, 12%, 23%, 34% and 44%.
The like results for `C[Si](C)(C)O[Si]1(O[Si](C)(C)C)n2c3c4ccccc4c2N=C2N=C(N=c4c5ccccc5c(n41)=NC1=NC(=N3)c3ccccc31)c1ccccc12` [Pc 280, SiPc(OSiMe3)2] were, in that order, 0%, 11%, 19%, 27% and 36%.
Regarding `CC1=C(/C=C/C(C)=C/C=C/C(C)=C/C(=O)O[Si]2(OC(=O)/C=C(C)/C=C/C=C(C)/C=C/C3=C(C)CCCC3(C)C)n3c4c5ccccc5c3N=C3N=C(N=c5c6ccccc6c(n52)=NC2=NC(=N4)c4ccccc42)c2ccccc23)C(C)(C)CCC1` (stereo not drawn) [Pc 301, SiPc[OC(O)(CH═C(CH3)CH═CH)2C6H6(CH3)3]2], the “decomp (%)” value in data set [1] (setting [3]) stood at 0%; in data set [1] (setting [4]), 19%; in data set [1] (setting [5]), 25%; in data set [1] (setting [6]) it was 28%; in data set [1] (setting [7]), 32%.
As to “SiPc[OC(O)(CH2)3(CH2CH═CH)3(CH2)4CH3]2 [Pc 298]”, in data set [1], the “decomp (%)” value was 0 12 21 27 33% and the “decomposition rate relative to bis(α-linolenoxy)silicon phthalocyanine” value is given as “approximately twice as fast”.
For the molecule `CCC[Si](CCC)(CCC)[O][Al]1[n]2c3c4ccccc4c2N=C2N=C(N=c4c5ccccc5c([n]41)=NC1=NC(=N3)c3ccccc31)c1ccccc12` [Pc 285, AlPcOSiPr3], the “decomp (%)” value stood at 0% in data set [2] (time 0 h); 8% in data set [2] (setting [8]); 16% in data set [2] (setting [9]); 23% in data set [2] (setting [10]); 30% in data set [2] (setting [11]).
`C[SiH2]O[Si]1(O[SiH2]C)n2c3c4ccccc4c2N=C2N=C(N=c4c5ccccc5c(n41)=NC1=NC(=N3)c3ccccc31)c1ccccc12` (stereo not drawn) [Pc 283, SiPc(OSiH2Me)2]: the “decomp (%)” value amounted to 0% in data set [2] (time 0 h); 24% in data set [2] (setting [8]); 44% in data set [2] (setting [9]); 63% in data set [2] (setting [10]); 77% in data set [2] (setting [11]).
Regarding `CCCCCC[Si](CCCCCC)(CCCCCC)[O][Al]1[n]2c3c4ccccc4c2N=c2c4ccccc4c([n]21)=NC1=NC(=NC2=NC(=N3)c3ccccc32)c2ccccc21` [Pc 286, AlPcOSiHx3], the “decomp (%)” value in data set [2] (time 0 h) came to 0%; in data set [2] (setting [8]), 10%; in data set [2] (setting [9]), 17%; in data set [2] (setting [10]), 23%; in data set [2] (setting [11]), 29%.
Consider `CC[Si](CC)(CC)O[Si]1(O[Si](CC)(CC)CC)n2c3c4ccccc4c2N=C2N=C(N=c4c5ccccc5c(n41)=NC1=NC(=N3)c3ccccc31)c1ccccc12` [Pc 281, SiPc(OSiEt3)2], for which the “decomp (%)” value in data set [2] (time 0 h) was 0%; in data set [2] (setting [8]), 5%; in data set [2] (setting [9]) it was 9%; in data set [2] (setting [10]), 13%; in data set [2] (setting [11]), 17%.
Consider `C=CCCCC[Si](C)(C)O[Si]1(O[Si](C)(C)CCCCC=C)n2c3c4ccccc4c2N=C2N=C(N=c4c5ccccc5c(n41)=NC1=NC(=N3)c3ccccc31)c1ccccc12` [Pc 270, SiPc[OSi(CH3)2(CH2)4CH═CH2]2], for which the “decomp (%)” value in data set [1] (setting [3]) is 0%; in data set [1] (setting [4]), 1%; in data set [1] (setting [5]), 2%; in data set [1] (setting [6]), 2%; in data set [1] (setting [7]) it was 3%.
Take `C[Si](C)(CCCN(c1ccccc1)c1ccccc1)O[Si]1(O[Si](C)(C)CCCN(c2ccccc2)c2ccccc2)n2c3c4ccccc4c2N=C2N=C(N=c4c5ccccc5c(n41)=NC1=NC(=N3)c3ccccc31)c1ccccc12` [Pc 159, SiPc[OSi(CH3)2(CH2)3N(C6H5)2]2]: the “decomp (%)” value in data set [1] (setting [3]) came out at 0%; in data set [1] (setting [4]), 0%; in data set [1] (setting [5]), 0%; in data set [1] (setting [6]), 0%; in data set [1] (setting [7]), 1%. For the same molecule, the “photostability (in words)” value in data set [1] (no added alkene) is reported as “quite stable under light”.
